Assay results published in patent US9890106B2, “Anti-cancer lead molecule” (KING ABDULLAH UNIVERSITY OF SCIENCE AND TECHNOLOGY, priority 2012, dated 2018).
Values joined by “and” are separate entries in the source; they are usually repeats but may differ in a detail not shown here. Identical values can stand only once. Like-named read-outs stand apart in the source and are kept apart here.

Experiments:
[1] = system: MCF-7 cells; assay: APOPercentage dye-uptake apoptosis assay, MCF-7; format: cell-based, human
Description: (§1) To further test if the cancer cells in present investigation are dying via apoptosis, a dye inclusion assay called APOPercentage was performed. APOPercentage™ is a dye-uptake assay that detects apoptotic cells during phospholipid phosphatidylserine (PS) trans-membrane movement. It has been established previously that APOPercentage™ can be used to detect early stages of apoptosis as efficiently as other technologies like Annexin V.
(§2) The cells were plated in 96 well plates at a density of 5×10^3 cells per well in triplicate in 90 μl of media. The cells were treated with 10 μl of desired concentration of plumbagin and derivative ‘A’ in DMEM media. The cells were incubated at 37° C. for 12 hr and 24 hr in different plates. 5 mM H2O2 was treated for 30 minutes to 1 hour as a positive control. The cells were stained with APOPercentage dye as per instructions from the vendor (Biocolor, UK). The cells were photographed with Nikon TS100 microscope. The OD was measured at 550 nm absorbance using BMG Pherastar and percentage of cells taking up APOPercentage dye was calculated.

[2] = system: MCF-7 (human breast cancer cell line); assay: MTT cytotoxicity assay, MCF-7
Description: (§3) The cytotoxicity of plumbagin and derivative ‘A’ was estimated by MTT assay. Cells were plated in a 384-well culture plates (2000 cells per well in 20 μl of media) for 24 h and cells were treated with various concentrations (0, 1.0, 5.0, 10.0, 20.0, 40.0, 80.0 and 100.0 μM) for 12 hr, 24 hr, 36 hr and 48 hr. Following desired incubation time, 5 μl of sterile 5 mg/ml MTT (3-(4,5-Dimethylthiazol-z-yl)-2,5diphenyltetrazolium bromide) (Sigma) dissolved in PBS was added to each well and the cells were incubated for another 4 hr followed by the addition of 30 μl of solubilisation solution (10% SDS, 10 mM HCl) and incubation for 16 hr at 37° C. The OD of each well at 595 nm was determined using a microtiter plate reader (BMG Pherastar).

[3] = General toxicity in nude mice (mortality, tolerance, body weight); format: in vivo
Description: (§4) When the tumor size reached a volume of 150 (150-220) mm^3, the tumor-bearing nude mice derived from MCF-7 cells were randomly assigned into 3 groups (10 mice/group): Group 1 was served as vehicle group (25% PEG400, 200 μl/20 g mouse, i.p, qd for 21 days and 25% PEG400, 400 μl/20g mouse, i.p, qd for 13 days), group 2 was administrated with derivative ‘A’ (5 mg/kg for 21 days and 10 mg/kg for 13 days, i.p, qd), group 3 was administrated with plumbagin (2 mg/kg for 21 days, i.p, qd). The administration period lasted for 3 weeks and 5 weeks. The detailed sacrificing schedule is described in section 5.
If abnormal appearance and behavior or signs of morbidity and/or mortality was seen through the cage side observation, the veterinarian would be notified and proper physical examination and/or necropsy would be performed. The food consumption in each group would be recorded. Frequency: daily just after the cell inoculation and twice a day thereafter starting on first dosing.
(§5) The tumor volume was measured every other day with calipers, and the body weight was measured immediately before measuring the tumor volume throughout the whole study. If the body weight loss is approaching 20%, stop dosing or decreased dosage will be carried out.
The use of different treatment concentrations (dosages) of derivative ‘A’ and plumbagin was due to the high toxicity of plumbagin at 5 mg/kg dose (8 mice died due to toxicity in first few days).

[4] = system: MCF-7 cells; assay: Microarray expression and pathway analysis in MCF-7 cells; format: cell-based, human; settings: for 'Atherosclerosis signaling' pathway: MCF-7 induced with 5 and 10 μM, IPA pathway mapping
Description: Microarray analysis was performed in an effort to identify the possible mechanism of action of derivative ‘A’. The MCF-7 cells induced with 5 and 10 μM of derivative ‘A’ and plumbagin were subjected to microarray experiments and the fold-change in expression was calculated as compared to untreated samples. The lists of differentially expressed genes were mapped to pathways using Ingenuity Pathway Analysis (IPA) tool and several key pathways affected by treatment of derivative ‘A’ and plumbagin were identified. ‘Atherosclerosis signaling’ was one of the key pathways that were affected by derivative ‘A’ and not the plumbagin.

[5] = system: BJ cell line (human normal fibroblast cells); assay: MTT cytotoxicity assay, BJ normal fibroblasts
Description: as §3

[6] = system: HepG2 (Hepatocellular carcinoma) cell line; assay: MTT cytotoxicity assay, HepG2 (in vitro hepatotoxicity model); settings: for IC50: read-out: IC50 against HepG2
Description: as §3

[7] = system: BJ cells; assay: APOPercentage dye-uptake apoptosis assay, BJ; format: cell-based, human
Description: as §1, §2

[8] = From the text: At the end of the experiment (the 22nd day after initiating drug treatment), the blood from some tumor-bearing mice per group (4 mice from the group 1, 5 mice from the group 2, 4 mice from the group 3) were collected by cardiac puncture, and the mice were sacrificed by cervical dislocation while under deep anesthesia. The other tumor-bearing mice from each group (5 mice from the group 1, 5 mice from the group 2) were sacrificed after another 13 days treatment (the 35th day after initiating drug treatment), the blood was collected while sacrificing the mice. The tumor samples were harvested, weighed, cut into small pieces and snap frozen in liquid nitrogen for RNA extraction. The liver were harvested and fixed in 10% NBF, and embedded in paraffin for histology analysis.
Blood were collected from all animals by terminal bleed for subsequent serum preparation, and serum was prepared at the end of the study for each animal. Serum samples were frozen in microcentrifuge tube at −80° C. To test the liver toxicity of the two compounds, biochemical dictators (ALT, AST) were analyzed in all the serum samples no more than 3 days after collection. The excess serum samples would be sent to client.
The serum was collected as explained above in methods and was used to assess the activity of ALT (alanine aminotransferase) and AST (aspartate aminotransferase).

[9] = system: MCF-7 tumor; assay: MCF-7 xenograft tumor inhibition in nude mice; format: in vivo; design: Tumor weight at autopsy, individual mouse (1-5) / Tumor weight at autopsy, AV: unit not given here; settings: for Tumor volume measured externally, AV / Tumor volume measured externally, individual mouse (1-5) / Tumor weight at autopsy, AV / Tumor weight at autopsy, individual mouse (1-5) / Tumor inhibition rate (C − T)/C × 100%, tumor volume / Tumor inhibition rate (C − T)/C × 100%, tumor weight: Compound A 5 mg/kg, Compound P 2 mg/kg, i.p, qd*21 days; for Tumor inhibition rate (C − T)/C × 100%, tumor volume: based on tumor volume by calipers; for Tumor inhibition rate (C − T)/C × 100%, tumor weight: based on tumor weight at autopsy
Description: Amplified and implanted (S.C.) the cancer cells (MCF-7) into 4 nude mice with 1.0×10^7 cells in 0.1 ml PBS plus matrigel (1:1) /mouse, when tumors reach 300-500 mm^3, the tumor masses were harvested, cut into small pieces of approximately 1-2 mm^3, and then surgically implanted into the 42 new nude mice for model set up (eventually 30 tumor-bearing mice are selected).
as §4, §5
Tumor sizes were measured every other day in two dimensions using a caliper, and the volume were expressed in mm^3 using the formula: V=½×a×b^2 where a and b are the long and short diameters of the tumor, respectively.
The tumor mass were weighed and photographed at the end of the experiment after harvested.
Inhibition rate (%)=(average tumor volume of control group-average cancer volume of test group)/average tumor volume of control group ×100%

[10] = Liver tissue H&E staining; format: in vivo, nude mice; settings: FIG. 12
Description: To test the liver toxicity of the two compounds, livers were harvested from all animals while sacrificing the animals. One piece of the liver was fixed in 10% NBF, and embeded in paraffin for pathology analysis, 1 paraffin block was prepared from each liver sample, 2 slides were used for H&E staining.
The following indications were examined on the photographs for liver tissue H&E staining (FIG. 12): (1) If the liver cells produce fatty degeneration, necrosis, hepatic lobule inflammation or not; (2) If the hepaticus sinus produce dilation or hyperaemia or not; (3) If the hepaticus portal area produce the inflammation or fibrous tissue hyperplasia or not. According to pathology degree from low to high: no lesion “−”, minor lesion “±”, low lesion “+”, middle lesion “++”, high lesion “+++”, highest lesion “++++”. […] The vehicle control is rather showing more toxicity to liver as compared to compounds under testing.

[11] = after 24 hr (20 μM per preceding sentence)
[12] = MTT time-course screening (12, 24, 36, 48 hr)

## CC(=O)Oc1cccc2c1C(=O)C=C(C)C2=O [derivative ‘A’, acetyl plumbagin]
[1]; 10 μM, 24 hr
  apoptosis induced in cancer cells: about 50%
[1]; [11]
  cancer cells undergoing apoptosis: 100%
[2]; 10 μM, 12 hr of treatment
  cytotoxicity in MCF-7: comparative to plumbagin
[2]; 10 μM, after 12 hr of treatment (FIG. 2)
  inhibits metabolic activity of cancer cells: 90%
[2]; [12]
  activity against MCF-7 cells: selective apoptotic activity
[3]; 5 mg/kg 21 days, 10 mg/kg 13 days, i.p, qd
  animal deaths with treatment: No animal died
[3]; in the course of the treatment
  body weight loss: minimum
[4]; MCF-7, 10 μM, interleukins, MMPs, CXCL family members
  gene families down-regulated as compared to untreated samples: > 2 fold
[4]
  'Atherosclerosis signaling' pathway: affected
[5]; 10 μM, 12 hr
  toxicity against BJ cell line: almost nil
[5]; 10 μM, 24 hr, compared to plumbagin at the same concentration
  toxicity against BJ cell line, times less than plumbagin: ~20 times
[5]; 20 μM, after 36 hr of treatment (FIG. 2)
  normal cells BJ inhibited: 20%
[5]; [12]
  effect on normal fibroblasts: relatively unaffected
[5]; after 36 hr of induction
  toxicity in BJ cell line, folds less than Plumbagin: ~4.5 folds
[6]; [12]
  hepatotoxicity (data based on HepG2 cell line): negligible
[6]; HepG2, 24 hr of treatment
  IC50: 41.2 µM
[7]; 10 μM, treatment for 24 hr
  safety for normal cells: safe
[7]; [11]
  normal cells undergoing apoptosis: 20%
[7]; up to 20 μM, treatment for 12 hr
  effect on normal cells (growth inhibition and apoptosis): relatively unaffected
[8]; in vivo summary
  ALT and AST values: low
[8]; outliers removed
  mean ALT value (FIG. 10): lower than plumbagin and even lower than vehicle treated mice
[9]
  Tumor volume measured externally, AV: 420.9 mm^3
  Tumor volume measured externally, individual mouse (1-5): 493.1 mm^3 and 595.4 mm^3 and 151.4 mm^3 and 486.0 mm^3 and 378.5 mm^3
  Tumor weight at autopsy, AV: 0.3145
  Tumor weight at autopsy, individual mouse (1-5): 0.3930 and 0.3862 and 0.3802 and 0.3290 and 0.0843
  Tumor inhibition rate (C − T)/C × 100%, tumor volume: 37.69%
  Tumor inhibition rate (C − T)/C × 100%, tumor weight: 44.96%
[9]; group of treated mice versus other groups
  tumor size (FIGS. 6A-6B): smaller
[10]
  liver toxicity by H&E staining of liver tissue: less toxic to liver as compared to plumbagin

## CC1=CC(=O)c2c(O)cccc2C1=O [plumbagin, 5-hydroxy-2-methyl-1,4-naphthoquinone, reference compound]
[1]; 5 μM, within 24 hr of treatment
  apoptosis in cancer cells: induces apoptosis
[2]; Homo sapiens, MCF7, 12 h, read-out: inhibits metabolic activity of cancer cells
  inhibition at 5 µM: 90%
[3]; 2 mg/kg dose, separate regimen with 1, 2 and 3 mg/kg
  tolerance by mice (body weight loss): well tolerated
[4]
  'Atherosclerosis signaling' pathway: not
[5]; Homo sapiens, BJ, 12 h, read-out: inhibits metabolic activity of normal cells BJ
  inhibition at 10 µM: ~70%
[6]; Homo sapiens, HepG2, 24 h
  IC50: 10.2 µM
[9]
  Tumor volume measured externally, AV: 560.2 mm^3
  Tumor weight at autopsy, AV: 0.6020
  Tumor inhibition rate (C − T)/C × 100%, tumor volume: 17.07%
  Tumor inhibition rate (C − T)/C × 100%, tumor weight: −5.35%
[9]; listed as Compound P
  Tumor volume measured externally, individual mouse (1-5): 1441.7 mm^3 and 260.9 mm^3 and 234.5 mm^3 and 303.8 mm^3
  Tumor weight at autopsy, individual mouse (1-5): 1.3530 and 0.4301 and 0.3675 and 0.2574
